≈ marks a conversion by molar mass, not a printed value. Where two headings read alike, the source gives them in different places.
Legend:
[1] = target: T1, DOXP reductoisomerase of Escherichia coli (UniProt P56139); test: inhibition of recombinant DOXP reductoisomerase (NADPH oxidation); format: biochemical; conditions: 1 mM DOXP, 0,3 mM NADPH, pH 7,5; read-out: IC50(nM) of DOXP reductoisomerase from Helicobacter pilori
T1 sequence (P56139 1-368): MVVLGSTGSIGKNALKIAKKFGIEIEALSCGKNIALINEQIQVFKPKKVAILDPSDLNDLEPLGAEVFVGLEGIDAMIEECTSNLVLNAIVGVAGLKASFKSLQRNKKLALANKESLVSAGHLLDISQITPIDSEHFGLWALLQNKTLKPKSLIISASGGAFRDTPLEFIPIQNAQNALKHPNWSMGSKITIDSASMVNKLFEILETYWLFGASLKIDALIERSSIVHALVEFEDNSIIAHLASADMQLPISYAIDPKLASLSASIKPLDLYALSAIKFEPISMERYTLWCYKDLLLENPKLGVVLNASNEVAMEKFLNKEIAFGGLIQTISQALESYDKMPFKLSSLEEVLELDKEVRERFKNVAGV

Plasmodium falciparum = test: antimalaria activity on in vitro cultures, [3H]-hypoxanthine incorporation; format: cell-based; conditions: 72 h, inhibition of [3H]-hypoxanthine incorporation, 48 + 24 hours, read-out: IC50(nM) of malaria culture (Plasmodium falciparum)
Procedure: The antimalaria activity of the compounds listed on page 9 was determined on in vitro cultures of the malaria pathogen Plasmodium falciparum. The depressions of a 96-well microtitre plate were charged with in each case 200 μl of an asynchroneous Plasmodium falciparum culture at a parasitaemia of 0,4% and haematokrit of 2%. A serial dilution series of the compounds in triple steps between concentrations of 100 to 0,14 μmol 1^−1 was then prepared. The plates were incubated at 37° C., 3% CO2 and 5% O2 over a period of 48 hours. 30 μl medium supplemented with 27 μCi ml^−1 [^3H]-hypoxanthine were then added to each well. After incubation for 24 hours the parasites were harvested by filtration on a glass fibre filter and the radioactivity which had been incorporated was measured. The inhibition of the growth of parasites was measured as the percentage inhibition of the incorporation of tritium. Inhibition of the growth of the parasites has been determined as percentage inhibition of incorporation of tritium based on a comparison without the substance. The half-maximum inhibitory concentration (IC50) of the substance was determined by extrapolation of the values.

Pseudomonas aeruginosa = test: antibacterial activity, minimum inhibition concentration in liquid culture; format: cell-based; conditions: read-out: MIC(nM) of bacteria culture (Pseudomonas aeruginosa)
Procedure: A dilution series comprising the concentrations 500, 100, 50, 10 and 0 μmol 1^−1 of the individual compounds in LB medium is introduced into 5 culture microtubes in a volume of 0,5 ml. The tubes were inoculated with 10 μl of an overnight culture of E. coli K12 and shaken overnight at 37° C. The growth of the bacteria was assessed on the basis of the turbidity of the medium. The minimum concentration causing inhibition of bacterial growth was determined (minimum inhibition concentration MIC)
The antibacterial activity of P. aeruginosa was determined in the same manner.

Echinochloa = test: herbicidal activity, Hydro Vorauflauf; format: in vivo
Procedure: (§1) The determination of herbicidal activity is performed according to standard procedure. Again the compounds listed on page 9 are tested.

Lepidium = test: herbicidal activity, Hydro Vorauflauf; format: in vivo
Procedure: as §1

Reis = test: herbicidal activity, Hydro Vorauflauf; format: in vivo
Procedure: as §1

Solanum = test: herbicidal activity, Hydro Vorauflauf; format: in vivo
Procedure: as §1

Abutilon theophrasti [2] = test: herbicidal activity, Erde Vorauflauf; format: in vivo
Procedure: as §1

Alopecurus myosuroides [3] = test: herbicidal activity, Erde Vorauflauf; format: in vivo
Procedure: as §1

Amaranthus retroflexus [4] = test: herbicidal activity, Erde Vorauflauf; format: in vivo
Procedure: as §1

Avena fatua [5] = test: herbicidal activity, Erde Vorauflauf; format: in vivo
Procedure: as §1

Beta vulgaris [6] = test: herbicidal activity, Erde Vorauflauf; format: in vivo
Procedure: as §1

Cyperus esculentus [7] = test: herbicidal activity, Erde Vorauflauf; format: in vivo
Procedure: as §1

Galium aperine [8] = test: herbicidal activity, Erde Vorauflauf; format: in vivo
Procedure: as §1

Setaria viridis [9] = test: herbicidal activity, Erde Vorauflauf; format: in vivo
Procedure: as §1

Sinapis arvensis [10] = test: herbicidal activity, Erde Vorauflauf; format: in vivo; conditions: Mutarda arvensis
Procedure: as §1

Xanthium strumarium [11] = test: herbicidal activity, Erde Vorauflauf; format: in vivo
Procedure: as §1

Zea mays [12] = test: herbicidal activity, Erde Vorauflauf; format: in vivo
Procedure: as §1

Abutilon theophrasti [13] = test: herbicidal activity, Erde Nachauflauf; format: in vivo
Procedure: as §1

Alopecurus myosuroides [14] = test: herbicidal activity, Erde Nachauflauf; format: in vivo
Procedure: as §1

Amaranthus retroflexus [15] = test: herbicidal activity, Erde Nachauflauf; format: in vivo
Procedure: as §1

Avena fatua [16] = test: herbicidal activity, Erde Nachauflauf; format: in vivo
Procedure: as §1

Beta vulgaris [17] = test: herbicidal activity, Erde Nachauflauf; format: in vivo
Procedure: as §1

Cyperus esculentus [18] = test: herbicidal activity, Erde Nachauflauf; format: in vivo
Procedure: as §1

Galium aperine [19] = test: herbicidal activity, Erde Nachauflauf; format: in vivo
Procedure: as §1

Setaria viridis [20] = test: herbicidal activity, Erde Nachauflauf; format: in vivo
Procedure: as §1

Sinapis arvensis [21] = test: herbicidal activity, Erde Nachauflauf; format: in vivo; conditions: Mutarda arvensis
Procedure: as §1

Xanthium strumarium [22] = test: herbicidal activity, Erde Nachauflauf; format: in vivo
Procedure: as §1

Zea mays [23] = test: herbicidal activity, Erde Nachauflauf; format: in vivo
Procedure: as §1

In the case of CC1(C)CON(C(=O)CP(C)(=O)O)C1=O [Compound 1], the IC50 [1] is reported as 22 nM, the IC50 (Plasmodium falciparum) is reported as 800 nM and the MIC (Pseudomonas aeruginosa; LB medium, overnight at 37° C., turbidity) is reported as 500 nM (≈ 0.118 µg/mL). It also gave a pest or weed control at 1000 g/ha (Echinochloa; 1000 Gramm/Hektar) of 80%, a pest or weed control at 1000 g/ha (Lepidium; 1000 Gramm/Hektar) of 40% and a pest or weed control at 1000 g/ha (Reis; 1000 Gramm/Hektar) of 50%. For the same molecule, the pest or weed control at 1000 g/ha (Solanum; 1000 Gramm/Hektar) was 0%, the pest or weed control at 500 g/ha (Abutilon theophrasti [2]; 500 Gramm/Hektar) was 0% and the pest or weed control at 500 g/ha (Alopecurus myosuroides [3]; 500 Gramm/Hektar) was 50%. It also gave a pest or weed control at 500 g/ha (Amaranthus retroflexus [4]; 500 Gramm/Hektar) of 0%, a pest or weed control at 500 g/ha (Avena fatua [5]; 500 Gramm/Hektar) of 0% and a plant injury at 500 g/ha (Beta vulgaris [6]; 500 Gramm/Hektar) of 30%. The pest or weed control at 500 g/ha (Cyperus esculentus [7]; 500 Gramm/Hektar) was 0%, the pest or weed control at 500 g/ha (Galium aperine [8]; 500 Gramm/Hektar) was 0% and the pest or weed control at 500 g/ha (Setaria viridis [9]; 500 Gramm/Hektar) was 0%. The pest or weed control at 500 g/ha (Sinapis arvensis [10]; 500 Gramm/Hektar) was 40%, the pest or weed control at 500 g/ha (Xanthium strumarium [11]; 500 Gramm/Hektar) was 0% and the plant injury at 500 g/ha (Zea mays [12]; 500 Gramm/Hektar) was 0%. The pest or weed control at 500 g/ha (Abutilon theophrasti [13]; 500 Gramm/Hektar) was 40%, the pest or weed control at 500 g/ha (Alopecurus myosuroides [14]; 500 Gramm/Hektar) was 50% and the pest or weed control at 500 g/ha (Amaranthus retroflexus [15]; 500 Gramm/Hektar) was 0%. It also gave a pest or weed control at 500 g/ha (Avena fatua [16]; 500 Gramm/Hektar) of 50%, a plant injury at 500 g/ha (Beta vulgaris [17]; 500 Gramm/Hektar) of 70% and a pest or weed control at 500 g/ha (Cyperus esculentus [18]; 500 Gramm/Hektar) of 0%. The pest or weed control at 500 g/ha (Galium aperine [19]; 500 Gramm/Hektar) was 90%, the pest or weed control at 500 g/ha (Setaria viridis [20]; 500 Gramm/Hektar) was 95% and the pest or weed control at 500 g/ha (Sinapis arvensis [21]; 500 Gramm/Hektar) was 95%. The pest or weed control at 500 g/ha (Xanthium strumarium [22]; 500 Gramm/Hektar) was 60% and the plant injury at 500 g/ha (Zea mays [23]; 500 Gramm/Hektar) was 80%.

For CP(=O)(O)CCCN1OCCCC1=O [Compound 4], the IC50 [1] was 78 nM, the IC50 (Plasmodium falciparum) was 9200 nM and the MIC (Pseudomonas aeruginosa) was 7000 nM (≈ 1.55 µg/mL). The pest or weed control at 4000 g/ha (Echinochloa; 4000 Gramm/Hektar) was 70%, the pest or weed control at 4000 g/ha (Lepidium; 4000 Gramm/Hektar) was 30% and the pest or weed control at 4000 g/ha (Reis; 4000 Gramm/Hektar) was 30%. The pest or weed control at 4000 g/ha (Solanum; 4000 Gramm/Hektar) was 30%, the pest or weed control at 2000 g/ha (Abutilon theophrasti [2]; 2000 Gramm/Hektar) was 0% and the pest or weed control at 2000 g/ha (Alopecurus myosuroides [3]; 2000 Gramm/Hektar) was 0%. The pest or weed control at 2000 g/ha (Amaranthus retroflexus [4]; 2000 Gramm/Hektar) was 0%, the pest or weed control at 2000 g/ha (Avena fatua [5]; 2000 Gramm/Hektar) was 60% and the plant injury at 2000 g/ha (Beta vulgaris [6]; 2000 Gramm/Hektar) was 60%. For the same molecule, the pest or weed control at 2000 g/ha (Cyperus esculentus [7]; 2000 Gramm/Hektar) was 0%, the pest or weed control at 2000 g/ha (Galium aperine [8]; 2000 Gramm/Hektar) was 0% and the pest or weed control at 2000 g/ha (Setaria viridis [9]; 2000 Gramm/Hektar) was 0%. For the same molecule, the pest or weed control at 2000 g/ha (Sinapis arvensis [10]; 2000 Gramm/Hektar) was 70%, the pest or weed control at 2000 g/ha (Xanthium strumarium [11]; 2000 Gramm/Hektar) was 0% and the plant injury at 2000 g/ha (Zea mays [12]; 2000 Gramm/Hektar) was 30%. For the same molecule, the pest or weed control at 2000 g/ha (Abutilon theophrasti [13]; 2000 Gramm/Hektar) was 50%, the pest or weed control at 2000 g/ha (Alopecurus myosuroides [14]; 2000 Gramm/Hektar) was 70% and the pest or weed control at 2000 g/ha (Amaranthus retroflexus [15]; 2000 Gramm/Hektar) was 40%. The pest or weed control at 2000 g/ha (Avena fatua [16]; 2000 Gramm/Hektar) was 40%, the plant injury at 2000 g/ha (Beta vulgaris [17]; 2000 Gramm/Hektar) was 50% and the pest or weed control at 2000 g/ha (Cyperus esculentus [18]; 2000 Gramm/Hektar) was 0%. For the same molecule, the pest or weed control at 2000 g/ha (Galium aperine [19]; 2000 Gramm/Hektar) was 70%, the pest or weed control at 2000 g/ha (Setaria viridis [20]; 2000 Gramm/Hektar) was 90% and the pest or weed control at 2000 g/ha (Sinapis arvensis [21]; 2000 Gramm/Hektar) was 60%. It also gave a pest or weed control at 2000 g/ha (Xanthium strumarium [22]; 2000 Gramm/Hektar) of 90% and a plant injury at 2000 g/ha (Zea mays [23]; 2000 Gramm/Hektar) of 70%.

From patent publication US6638957B1, “Use of compounds with a nitrogen-oxygen heterocycle” (Jomaa Pharmaka GmbH, priority 1999, dated 2003)
